Source: patent US20130183268A1, “DRUG COMBINATIONS WITH FLUORO-SUBSTITUTED OMEGA-CARBOXYARYL DIPHENYL UREA FOR THE TREATMENT AND PREVENTION OF DISEASES AND CONDITIONS” (BAYER HEALTHCARE LLC, priority 2010, published 2013)

Columns and labels:
[1] = Metabolite profile, incubation of [14C]regorafenib with liver microsomes (man); type: in vitro ADME; settings: [14C]regorafenib 20 μM, liver microsomes 0.5 mg/mL, 60 min
Experimental: (§1) N-oxide (M-2), hydroxymethyl (M-3), de-methylated (M-4) and N-oxide-demethylated (M-5) metabolites of the fluoro-substituted diaryl urea of Formula (I) are shown below. They were identified as metabolites of regorafenib in vitro upon incubation with liver enzymes of various mammalian species (man, dog, rat, mouse). Studies reveal that its metabolites show high protein binding in man and animal species (data not shown). [table]

[2] = Metabolite profile, incubation of [14C]regorafenib with liver microsomes (dog); type: in vitro ADME, Beagle dog; settings: [14C]regorafenib 20 μM, liver microsomes 0.5 mg/mL, 60 min
[3] = Metabolite profile, incubation of [14C]regorafenib with liver microsomes (rat); type: in vitro ADME, Wistar rat; settings: [14C]regorafenib 20 μM, liver microsomes 0.5 mg/mL, 60 min
Experimental: as §1

[4] = Metabolite profile, incubation of [14C]regorafenib with liver microsomes (mouse); type: in vitro ADME, NMRI mouse; settings: [14C]regorafenib 20 μM, liver microsomes 0.5 mg/mL, 60 min
Experimental: as §1

[5] = Pharmacokinetics in patients after 160 mg regorafenib co-precipitate tablet; settings: for AUC Day 21 / Cmax Day 21: analyte in plasma, 160 mg regorafenib co-precipitate tablet daily, day 21, n = 9, geometric mean; for systemic exposure: colon cancer patients, 160 mg coprecipitate tablets daily for 21 days; for fold increase in Cmax / fold increase in the AUC: continuous qd dosing for 19 days, in comparison to the first dose; for Fold change AUC / Fold change Cmax: day 21 versus day 1
[6] = analyte in plasma after 160 mg regorafenib co-precipitate tablet, day 1, n = 9, geometric mean

SMILES	% of radioactivity, Man [1]	% of radioactivity, Beagle dog [2]	% of radioactivity, Wistar rat [3]	% of radioactivity, NMRI mouse [4]	AUC Day 1 [5, 6]	Cmax Day 1 [5, 6]	AUC Day 21 [5]	Cmax Day 21 [5]	systemic exposure [5]	fold increase in Cmax [5]	fold increase in the AUC [5]	Fold change AUC [5]	Fold change Cmax [5]
CNC(=O)c1cc(Oc2ccc(NC(=O)Nc3ccc(Cl)c(C(F)(F)F)c3)c(F)c2)cc[n+]1[O-] [Example M-2, 4{4-[3-(4-chloro-3-trifluoromethylphenyl)-ureido]-3-fluorophenoxy}-1-hydroxy-pyridine-2-carboxylic acid methylamide]	29.7%	3.6%	5.4%	26.9%	24000 ng·h/mL	764 ng/mL	55400 ng·h/mL	3570 ng/mL	very similar to regorafenib	5 fold	2 fold	2.3	4.7
O=C(Nc1ccc(Cl)c(C(F)(F)F)c1)Nc1ccc(Oc2ccnc(C(=O)NCO)c2)cc1F [Example M-3]	7.7%	25.6%	19%	12%	–	–	–	–	–	–	–	–	–
NC(=O)c1cc(Oc2ccc(NC(=O)Nc3ccc(Cl)c(C(F)(F)F)c3)c(F)c2)cc[n+]1[O-] [Example M-5, 4{4-[3-(4-chloro-3-trifluoromethylphenyl)-ureido]-3-fluorophenoxy}-1-hydroxy-pyridine-2-carboxylic acid amide]	–	–	–	–	–	75.5 ng/mL	51800 ng·h/mL	3140 ng/mL	very similar to regorafenib	42 fold	25 fold	25.1	41.6
